Patent US10287258B2, “Certain (2S)-N-[(1S)-1-cyano-2-phenylethyl]-1,4-oxazepane-2-carboxamides as dipeptidyl peptidase 1 inhibitors” (AstraZeneca AB, priority 2014, dated 2019)

Assays:
[1] = Test B: In-vitro competitive aortic tissue binding assay; settings: 100 μM compound, competition with [14C]4-amino-N-[(1S)-1-cyano-2-(4′-cyanobiphenyl-4-yl)ethyl]tetrahydro-2H-pyran-4-carboxamide, rat aortic homogenate
Protocol: Test B: In-Vitro Competitive Aortic Tissue Binding Assay
Aortic homogenate was prepared from the thoracic aortae of Han Wistar rats. Freshly isolated thoracic aortae were frozen, and later thawed and stripped of non-elastic material. […] Homogenate concentration was adjusted to 30 mg/mL in Puck's saline, and aliquots were stored at −80° C. until use. Positive and negative control compounds and test compounds were made up to 100 mM in DMSO, and added to 1 mL aliquots of aortic homogenate in Puck's saline for a final concentration of 100 μM. Homogenate samples were pre-incubated with test compounds at 37° C., rotating, overnight. [^14C]4-Amino-N-[(1S)-1-cyano-2-(4′-cyanobiphenyl-4-yl)ethyl]tetrahydro-2H-pyran-4-carboxamide was then added to all samples to a final concentration of 100 μM, and samples were incubated at 37° C., rotating, for a further 2 h. Protein was precipitated from each sample by the addition of 10 mL acetone, pre-chilled to −20° C. Samples were left overnight at −20° C. to allow complete precipitation. […] Precipitate was washed by resuspension in 10 mL 80% methanol in distilled water, and re-pelleted by centrifugation at 4,500× g at 4° C. for 20 min. […] After final wash, precipitate was air-dried, and dissolved overnight in 1 mL NCSII Tissue Solubiliser. 1 mL aliquots of supernatants were added to 5 mL Ultima Gold scintillation fluid (Perkin Elmer, MA, U.S.A.), and 1 mL solubilised pellets were added to 5 mL Hionic-Fluor scintillation fluid (Perkin Elmer, MA, U.S.A.). Radioactivity of samples was determined on a Beckman LS6500 multipurpose scintillation counter (Beckman Coulter, IN, U.S.A.). […] Duplicate samples were tested for each compound on each experimental occasion, and at least two experiments were run for each test compound. […] 1-way ANOVA and Bonferroni's multiple comparison tests were performed to calculate significance of differences from vehicle control.

[2] = target: recombinant human DPP1 (rhDPP1) (Homo sapiens (Human), UniProt P53634); assay: Test A2: Fluorescence assay for recombinant human (RH) DPP1; assay type: biochemical; settings: Test A2 (Examples 36-37); 96.4 pM rhDPP1, 50 μM H-Gly-Arg-AMC, pH 5.0, rt
Protocol: Test A2: Fluorescence Assay for Recombinant Human (RH) DPP1
The activity of DPP1 was determined by measuring the enzymatic release of aminomethyl coumarin (AMC) from the peptide substrate (H-Gly-Arg-AMC), which leads to an increase in fluorescence intensity at λex=350 nm and λem=450 nm. The assay was carried out in black 384 well plates in a final volume of 10 μl at rt. The assay conditions contained the following: 25 mM piperazine buffer pH 5.0; 50 mM NaCl, 5 mM DTT; 0.005 (v/v) Triton X-100; 50 μM H-Gly-Arg-AMC and 96.4 pM rhDPP1 Potential inhibitors were diluted in DMSO to generate 100× of the final assay concentration. The compounds were tested at 10 concentrations with half-log dilution steps (highest concentration typically 1 μM) and with a final DMSO concentration of 1% (v/v). Routinely, inhibitors were pre-incubated with rhDPP1 for 30 min prior to the addition of the peptide substrate to start the reaction for a further 30 min. After incubation the plates were read in a fluorescence plate reader using the above emission and excitation wavelengths. The pIC50 were determined using a 4-paramater logistic equation in a non-linear curve fitting routine (Smartfit, Genedata Screener®). […]

[3] = Rat quantitative whole-body autoradiography (QWBA) studies, aortic retention; assay type: in vivo
[4] = literature (Schmidt et al. 1984); cited from earlier work

Chain of recombinant human DPP1 (rhDPP1) (P53634 231-394): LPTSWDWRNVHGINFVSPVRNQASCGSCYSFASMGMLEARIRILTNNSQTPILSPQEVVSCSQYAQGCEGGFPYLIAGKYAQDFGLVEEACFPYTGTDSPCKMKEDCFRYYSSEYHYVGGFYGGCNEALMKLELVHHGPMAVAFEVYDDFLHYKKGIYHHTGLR
Chain of recombinant human DPP1 (rhDPP1) (P53634 25-134): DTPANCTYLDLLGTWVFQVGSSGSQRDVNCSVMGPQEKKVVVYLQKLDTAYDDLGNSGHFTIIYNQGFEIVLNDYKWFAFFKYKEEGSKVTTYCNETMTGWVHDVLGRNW
Chain of recombinant human DPP1 (rhDPP1) (P53634 395-463): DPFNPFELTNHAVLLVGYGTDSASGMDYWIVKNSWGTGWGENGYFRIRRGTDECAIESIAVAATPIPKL

SMILES | Aortic Tissue Binding [1] | further results
Cn1c(=O)oc2ccc(-c3ccc(C[C@@H](C#N)NC(=O)[C@@H]4CNCCCO4)cc3)cc21 [Example 2, (2S)-N-{(1S)-1-Cyano-2-[4-(3-methyl-2-oxo-2,3-dihydro-1,3-benzoxazol-5-yl)phenyl]ethyl}-1,4-oxazepane-2-carboxamide] | No binder | 
CC[C@@H](/C=C/C(=O)N1CCc2ccccc21)NC(=O)[C@@H]1CNCCCO1.O=C(O)C(F)(F)F [Example 36] |  | DPP1 activity, pIC50 [2]: 8.3
CC(C)C[C@@H](/C=C/C(=O)N1CCc2ccccc21)NC(=O)[C@@H]1CNCCCO1.O=C(O)C(F)(F)F [Example 37, (2S)-2-[(2E,4S)-1-(2,3-Dihydro-1H-indol-1-yl)-6-methyl-1-oxohept-2-en-4-yl]-1,4-oxazepane-2-carboxamide trifluoroactetate] |  | DPP1 activity, pIC50 [2]: 8.28
CC(c1ccc(Cl)c(Cl)c1)N1N=C(N)CC1=O (stereo not drawn) [muzolimine] |  | retention in the aorta in QWBA studies [4]: retained selectively in the aorta

Continued, in another order:

Aortic Tissue Binding [1] | SMILES | further results
Binder | N#Cc1ccc(-c2ccc(C[C@@H](C#N)NC(=O)[C@@H]3CCCCN3)cc2)cc1 [WO2009/074829 (Example 24)] | 
Medium binder | Cn1c(=O)oc2ccc(-c3ccc(C[C@@H](C#N)NC(=O)[C@@H]4CCCCN4)cc3)cc21 [WO2009/074829 (Example 96)] | 
Strong binder reference | N#Cc1ccc(-c2ccc(C[C@@H](C#N)NC(=O)C3(N)CCOCC3)cc2)cc1 [WO2010/128324 (Ex. 3), 4-amino-N-[(1S)-1-cyano-2-(4′-cyanobiphenyl-4-yl)ethyl]tetrahydro-2H-pyran-4-carboxamide] | aortic retention in rat QWBA studies [3]: high level of aortic retention
Strong binder | Cn1c(=O)oc2ccc(-c3ccc(C[C@@H](C#N)NC(=O)C4(N)CCOCC4)cc3)cc21 [WO2010/128324 (Example 17)] | 
